Data from paper PMC12566936, “DST-3, a Novel Modified Cryptotanshinone, Protects Against Pulmonary Fibrosis via Inhibiting STAT3/Smad Signaling Pathway and Improves Bioavailability” (Pharmaceutics, 2025).
Where two headings read alike, the source gives them in different places.

How the values were obtained:
[1] = Pharmacokinetic study, single iv or oral administration in SD rats; assay type: in vivo; conditions: for concentration at 0.25 h / concentration at 0.5 h / concentration at 1 h / concentration at 2 h / concentration at 3 h / concentration at 4 h / concentration at 6 h / concentration at 8 h / concentration at 12 h / concentration at 24 h: n = 4; for MRT last: read-out: MRT0–t
Description: A total of 16 male SD rats, according to weight, were randomly divided into four groups (n = 4), a~d, as described in pharmacodynamics study: • (A) DST-3 intravenous injection of 6 mg/kg; • (B) DST-3 oral gavage of 60 mg/kg; • (C) CTS intravenous injection of 6 mg/kg; • (D) CTS oral gavage of 60 mg/kg.
Blood collection was performed in all rats at 0.25 h, 0.5 h, 1 h, 2 h, 3 h, 4 h, 6 h, 8 h, 12 h, and 24 h after administration.
The blank plasma for method validation was rapidly extracted from the main abdominal vein of SD rats. The sample for the pharmacokinetic study was obtained by taking 250 μL of blood from the orbit of SD rats. The blood was placed in a heparinized collection vessel, centrifuged at 3000 rpm for 10 min, and the upper plasma layer was taken.
A 100 μL sample was precisely measured, and 10 μL of loratadine working solution and 500 μL of ethyl acetate were added for liquid–liquid-extraction. The mixture was shaken for 1 min, centrifuged for 4 min at 12,000× g, and 400 μL of the upper organic phase was vacuum dried for 2 h. Then 100 μL of mobile phase (methanol-1% formic acid water (90:10, v/v)) was added, dissolved, vortexed for 1 min, and centrifuged at low temperature for 3 min at 12,000× g. The supernatant (80 μL) was placed in a sample bottle for HPLC-MS/MS analysis.
According to the non-compartmental model, the pharmacokinetic software DAS 2.0 was used to calculate the main pharmacokinetic parameters: maximum plasma concentration (Cmax), elimination half-life (t1/2), time to reach maximum plasma concentration (Tmax), mean residence time (MRT0–t), area under the plasma concentration curve from 0 to the last measured concentration (AUC0−t), AUC from 0 to infinity (AUC0–∞), apparent clearance rate (CL/F) and apparent distribution volume (V/F).

MRC5 cells = experiment: CCK8 cell viability assay; assay type: cell-based; conditions: 20 μM, 48 h
Description: (§1) Medical Research Council cell strain-5 (MRC5, ATCC, Manassas, VA, USA, Cat# CCL-171) was supplemented with 10% fetal bovine serum (GIBCO, Invitrogen, Carlsbad, CA, USA) in low-sugar DMEM medium (GIBCO, Invitrogen, Carlsbad, CA, USA) in an incubator containing 5% CO2 atmosphere at 37 °C.
The cells were seeded in 96-well plates for 24 h and treated with DST-3 (1.25, 2.5, 5, 10, 20 μM) at different concentrations for 48 h. The CCK8 kit (Beyotime, Shanghai, China) was used to test the cytotoxic effect of DST-3 on MRC5 cells. Medium solution of 10% CCK8 was added to each well and incubated at 37 °C for 2 h. Absorbance was measured at 450 nm (BioTek, Elx800, Winooski, VT, USA).

[2] = test system: TGF-β1-stimulated MRC5 cells; experiment: TGF-β1-induced fibrosis in MRC5 (α-SMA, fibronectin, type I collagen; immunofluorescence and Western blot); assay type: cell-based; conditions: TGF-β1 5 ng/mL, 48 h
Description: as §1
MRC5 cells were fixed in 4% paraformaldehyde for 0.5 h, then permeated with 1% Triton X-100 (Sangon Biotech, Shanghai, China) for 10 min, and blocked with goat serum (BOSTER, Wuhan, China) for 1 h. The cells were then incubated with α-SMA or STAT3 (1:100 diluted) primary antibody overnight at 4 °C and secondary antibody at room temperature for 1 h. The nuclei were stained at room temperature with Hoechst 33,342 (1:100 diluted) for 10 min. Fluorescence images were captured using a laser scanning ultra-high resolution microscope (FV3000, Olympus Corporation, Tokyo, Japan).
MRC5 cells or lung tissues were washed with cold PBS and then lysed on ice using RIPA buffer (Beyotime Biotechnology, Shanghai, China) supplemented with protease and phosphatase inhibitors (Bimake, Boston, USA) for 0.5 h and centrifuged at 4 °C at 12,000× g for 15 min. […] (BCA protein Assay Kit, Pierce, Waltham, MA, USA) was used to determine protein concentration. […] Band strength was quantified by ImageJ software (version 1.53t, Bio-Rad, Rockford, IL, USA).

[3] = test system: BLM-induced pulmonary fibrosis in C57BL/6 mice; experiment: BLM-induced pulmonary fibrosis model; assay type: in vivo; conditions: BLM 2 mg/kg; DST-3 15–60 mg/kg, CTS 30 mg/kg oral
From the text: Sixty male Sprague-Dawley (SD) rats were individually weighed one day prior to administration and randomly assigned to six groups (n = 10 per group) using a stratified randomization method to ensure balanced average body weights across groups (weight range: 220–260 g; inter-group mean weight difference < 5 g). The vehicle used for […] administration of both CTS and DST-3 was 0.5% sodium carboxymethyl cellulose (CMC-Na) solution. A–F: • (A) Normal saline + CMC–Na; • (B) BLM + 0.5% CMC–Na; • (C) BLM + DST-3 15 mg/kg; • (D) BLM + DST-3 30 mg/kg; • (E) BLM + DST-3 60 mg/kg; • (F) BLM + CTS 30 mg/kg.
Pulmonary fibrosis was induced in groups B–F by tracheal infusion of bleomycin 2 mg/kg, and in group A by normal saline. To create a suspension for oral administration, all DST-3 or CTS were dissolved in 0.5% CMC-Na. […]
HYP was specifically detected in collagen as a posttranslational product of proline hydroxylation. […] In this study, the content of HYP in lung tissue was determined by alkaline hydrolyzation. […] Each sample was measured at 550 nm to detect the absorbance, and the HYP content was calculated according to the following formula: Hydroxproline content (μg/mg) =Measured OD value -Blank OD value/Standard OD value -Blank OD value× Stand content ×Lysate total volume (mL)/Organization wet weight (mg) […]

[4] = cited from earlier work
[5] = male, rat, plasma, iv 6 mg/kg, n = 4, mean ± SD
[6] = male, rat, plasma, oral 60 mg/kg
[7] = male, rat, plasma, po, ig 60 mg/kg, n = 4, mean ± SD

Work on `C[C@H]1COC2=C1C(=O)C(=O)c1c2ccc2c1CCCC2(C)C` [CTS, Cryptotanshinone] yielded a V/F ([1]; ig 60 mg/kg, n = 4, mean ± SD) of 1391 ± 382.0 L, a V/F ([1]; iv 6 mg/kg, n = 4, mean ± SD) of 87.70 ± 59.30 L and a concentration at 0.25 h ([1]; male, rat, plasma, iv 6 mg/kg) of 341 ng/mL. The concentration at 0.5 h ([1]; male, rat, plasma, iv 6 mg/kg) was 167 ng/mL, the concentration at 1 h ([1]; male, rat, plasma, iv 6 mg/kg) was 91.7 ng/mL and the concentration at 2 h ([1]; male, rat, plasma, iv 6 mg/kg) was 73.9 ng/mL. For the same compound, the concentration at 3 h ([1]; male, rat, plasma, iv 6 mg/kg) was 62.8 ng/mL, the concentration at 4 h ([1]; male, rat, plasma, iv 6 mg/kg) was 45.7 ng/mL and the concentration at 6 h ([1]; male, rat, plasma, iv 6 mg/kg) was 29.9 ng/mL. It also gave a concentration at 8 h ([1]; male, rat, plasma, iv 6 mg/kg) of 19 ng/mL, a concentration at 12 h ([1]; male, rat, plasma, iv 6 mg/kg) of 10.2 ng/mL and a concentration at 24 h ([1]; male, rat, plasma, iv 6 mg/kg) of 4.8 ng/mL. The AUC(0-inf) [1, 5] was 671 ± 168 ng·h/mL, the AUC(0-t) [1, 5] was 631 ± 157 ng·h/mL and the Cmax [1, 5] was 341 ± 14.9 ng/mL. For the same compound, the half-life [1, 5] was 6.8 ± 3.7 h, the MRT last [1, 5] was 5.1 ± 0.3 h and the concentration at 0.25 h [1, 6] was 11.7 ng/mL. For the same compound, the concentration at 0.5 h [1, 6] was 13.6 ng/mL, the concentration at 1 h [1, 6] was 18.9 ng/mL and the concentration at 2 h [1, 6] was 16.3 ng/mL. The concentration at 3 h [1, 6] was 23 ng/mL, the concentration at 4 h [1, 6] was 34.8 ng/mL and the concentration at 6 h [1, 6] was 29.4 ng/mL. It also gave a concentration at 8 h [1, 6] of 31 ng/mL, a concentration at 12 h [1, 6] of 17.5 ng/mL and a concentration at 24 h [1, 6] of 8.9 ng/mL. The bioavailability ([1]; male, rat, plasma, oral, ig 60 mg/kg vs iv 6 mg/kg, AUCig/AUCiv × 100%, read-out: absolute bioavailability) was 8.56%, the AUC(0-inf) [1, 7] was 574 ± 51 ng·h/mL and the AUC(0-t) [1, 7] was 458 ± 22.8 ng·h/mL. The Cmax [1, 7] was 39.5 ± 6.8 ng/mL, the Tmax [1, 7] was 4.5 ± 1 h and the half-life [1, 7] was 9.3 ± 3 h. The MRT last [1, 7] was 15.7 ± 2.8 h, the “cell viability (cytotoxicity)” value (MRC5 cells) was “significantly decreased” and the “expression of α-SMA and ECM proteins” value [2] was “downregulate the overexpression”. The “histopathology (HE and Masson staining): inflammatory infiltration and fibrosis severity” value [3] was “reduced inflammatory infiltration and fibrosis severity”, the oral bioavailability ([4]; CTS is a substrate of P-glycoprotein) was 2.05% and the oral bioavailability ([4]; typically) was “below 10%”.
